Like-named read-outs stand apart in the source and are kept apart here.
Legend:
Molt-4 cells [1] = test: Detection of E3 enzyme-dependence: Molt-4 cell killing with or without pomalidomide (CCK-8); type: cell-based; conditions: 10 µM pomalidomide, Figure 2
Method: (§1) Actively growing and healthy Molt-4 cells were collected, centrifuged at 1000 rpm for 5 minutes, and after removing the supernatant, the cells were resuspended in fresh RPMI-1640 medium containing 10% fetal bovine serum. Cell counting was then performed. The cell density was adjusted to 120,000 cells per milliliter, and 100 µL of the cell suspension was added to each well of a 96-well transparent cell culture plate. It was noted that the edge wells of the 96-well plate were not used for testing, and 300 µL of PBS alone was added to these wells to reduce medium evaporation.
Molt-4 cells were plated in duplicate according to the number of the tested small molecules, so as to test the effects with and without the addition of pomalidomide (a competitive ligand specific for E3 ligase), in which one half of the parallel cells was added 10 µM pomalidomide. A series of small molecule concentration gradients (0.001, 0.003, 0.01, 0.03, 0.1, 0.3, 1, and 3 µM) were pre-set, and a series of 2× drug dilutions for the above concentrated were prepared in DMEM medium containing 10% fetal bovine serum. 100 µL of the above DMEM medium containing the gradient concentrations of the drug was added to 96-well plates that have been pre-plated with cells, so that the final drug concentration in each well was the pre-set series of concentrations respectively. Three replicate wells were used for each test drug concentration. The 96-well plates were placed back in a 37°C incubator, and the cell viability was detected after three days.
(§2) Cell viability after drug treatment was detected by using the CCK-8 method: three days after adding the drugs, the plates were taken out, and the supernatant was discarded. Then, 100 µL of pre-prepared CCK-8 working solution was added to each well. The CCK-8 working solution was obtained through diluting a CCK-8 stock solution (C0041, Beyotime) by 10-fold volumn with a serum-free DMEM culture medium. The 96-well plates with the added CCK-8 working solution were placed back in the 37°C incubator and incubated for 0.5-2 hours. The plates were then taken out, and the absorbance value (OD value) of each well was measured at a wavelength of 450 nm. The cell viability in each experimental group was calculated according to the following formula: Relative cell viability (%) = (Blank control group - Experimental group) / Blank control group × 100%.

Molt-4 cells [2] = test: Molt-4 cell killing activity test (CCK-8); type: cell-based; conditions: for EC50: Homo sapiens; for killing Molt-4 cells at different concentrations (Figure 1), in words: 0.001-3 µM, comparison with control molecules
Method: as §1, with “Molt-4 cells were cultured and amplified in 10 cm dishes by using RPMI-1640 medium supplemented with 10% fetal bovine serum. Actively” for “Actively”, “testing;” for “testing,”
The small molecule compounds to be tested for activity were prepared. A series of small molecule concentration gradients (0.001, 0.003, 0.01, 0.03, 0.1, 0.3, 1, and 3 µM) were pre-set, and a series of 2× drug dilutions for the above concentrations were prepared in RPMI-1640 medium containing 10% fetal bovine serum. 100 µL of the above medium containing the gradient concentrations of the drug was added to each well of a 96-well plate pre-seeded with cells, so that the final drug concentration in each well was the pre-set concentration gradient. Three replicate wells were used for each tested drug concentration. The 96-well plate was placed back in a 37°C incubator, and the cell viability was measured after three days.
as §2, with “The plate” for “Cell viability after drug treatment”, “taken out” for “detected by using the CCK-8 method:”, “drugs,” for “drugs, the plates were taken out,”, “and” for “and the supernatant was discarded. Then,”, “RPMI-1640” for “DMEM culture”, “nm, and the” for “nm. The”

HEF cells = test: Senescent cell killing activity test, HEF cell model (CCK-8); type: cell-based, human; conditions: for toxicity on normal non-senescent HEF cells: higher concentration (25 µM)
Method: To avoid replication of the induced senescent cells, low-passage proliferating HEF cells (<10 passages), MRC5 cells (<6 passages), and BJ cells (<10 passages) were used as normal controls. For chemical drug induced senescence, HEF cells were treated with 10 µM etoposide (Selleck, S1225) for 36-48 hours, MRC5 cells were treated with 5 µM bleomycin (Selleck, S1225) for 72 hours, and BJ cells were treated with 10 µg/mL bleomycin for 72 hours. Three days after the treatment, the cells were subcultured in fresh culture medium at a 1:3 ratio for 72 hours before further analysis and use.
Non-senescent and induced-senescent HEF cells, non-senescent and induced-senescent MRC5 cells, and non-senescent and induced-senescent BJ cells were respectively digested with trypsin, and centrifuged at 1000 rpm for 5 minutes. Then, the supernatant was removed, and the cells were resuspended in fresh DMEM culture medium containing 10% fetal bovine serum for counting. The cell density was adjusted so that the non-senescent cell density was 4000 cells/100 µL and the senescent cell density was 7000 cells/100 µL. 100 µL of the cell suspension was added to each well of a 96-well transparent cell culture plate. It was noted that the edge wells of the 96-well plate were not used as testing wells, and 300 µL of PBS alone was added to these wells to reduce evaporation of the culture medium. The 96-well plates with the well-plated cells were placed back in a 37°C incubator for overnight culture until the cells adhered. On the next day, the small molecule compounds to be tested were prepared and added after the cells had adhered.
A series of small molecule concentration gradients (0.01, 0.03, 0.1, 0.3, 1, 3, 10, and 25 µM) were pre-set, and a series of 2× drug dilutions for the above concentrations were prepared in DMEM culture medium containing 10% fetal bovine serum. 100 µL of the above DMEM culture medium containing the gradient concentrations of the drug was added to each well of the 96-well plate that had been well-plated with cells, so that the final drug concentration in each well was the pre-set series of concentrations. Three replicate wells were used for each test drug concentration. The 96-well plates were placed back in a 37°C incubator, and cell viability was measured after three days.
Three days after adding the drug, the plates were taken out, and the supernatant was discarded. 100 µL of pre-prepared CCK-8 working solution was added to each well. The CCK-8 working solution was obtained through diluting a CCK-8 stock solution (C0041, Beyotime) with a serum-free DMEM culture medium by 10-fold volumn. The 96-well plates containing the CCK-8 working solution were placed back in the 37°C incubator and incubated for 0.5-2 hours. The plates were then taken out, and the absorbance value (OD value) of each well was measured at a wavelength of 450 nm. The cell viability in each experimental group was calculated according to the following formula: Relative cell viability (%) = (Blank control group - Experimental group) / Blank control group × 100%.

Bcl-xL protein = target: T1, Bcl-xL protein (Homo sapiens, UniProt Q07817); test: Degradation experiment of Bcl-xL target protein (Western blot in Molt-4 cells); type: cell-based; conditions: 100 nM, 0, 2, 6, 16 h, GAPDH internal control, Figure 4
T1 construct: host or cells: Molt-4 cells
Method: Actively growing and healthy Molt-4 cells were subcultured into a fresh RPMI-1640 medium containing 10% fetal bovine serum, and each PROTAC molecule was added thereto at a final concentration of 100 nM. After drug treatment for the specified times (0, 2, 6, and 16 hours), the cells were collected, the supernatant was discarded by centrifugation, and the cells were washed twice with pre-cooled PBS buffer. Total protein was extracted with a lysis buffer (Servicebio, G2002-100ML), and the protein concentration was normalized by using a BCA protein quantification kit (Servicebio, G2026). Protein samples were mixed with a protein-loading buffer and incubated at 95°C for 5 minutes. Western blotting experiments were performed by using the following antibodies: Bcl-xL (Abcam, catalog number ab32370), diluted at 1:500; GAPDH antibody (Servicebio, catalog number GB15004), diluted at 1:1000; and horseradish peroxidase-conjugated goat anti-rabbit secondary antibody (Servicebio, catalog number GB23303), diluted at 1:5000.

[3] = 72 h, Molt-4 cells, three days, CCK-8, read-out: EC50 (Molt-4)
[4] = Bcl-xL-positive Molt-4 cells, read-out: cellular activity / killing activity (Molt-4 cells)

T1 sequence (Q07817 whole entry): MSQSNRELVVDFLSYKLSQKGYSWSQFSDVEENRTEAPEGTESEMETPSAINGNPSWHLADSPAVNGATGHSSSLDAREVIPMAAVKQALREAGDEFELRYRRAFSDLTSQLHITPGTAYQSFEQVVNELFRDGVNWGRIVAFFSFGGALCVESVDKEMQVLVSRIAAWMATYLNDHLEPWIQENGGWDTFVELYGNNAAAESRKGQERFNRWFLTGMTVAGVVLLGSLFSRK

| Compound | cell killing activity after addition of pomalidomide (+poma) compared to without (-poma) (Molt-4 cells [1]) | EC50 (Molt-4 cells [2]; [3]) [nM] | toxicity on normal non-senescent HEF cells (HEF cells) | degradation of the Bcl-xL protein (Bcl-xL protein) | EC50 (Molt-4 cells [2]; [4]) [nM] | killing Molt-4 cells at different concentrations (Figure 1), in words (Molt-4 cells [2]) | killing senescent HEF cells (HEF cells; etoposide-induced senescent vs normal HEF cells, Figures 3A-3F) |
| --- | --- | --- | --- | --- | --- | --- | --- |
| CC1(C)CCC(c2ccc(Cl)cc2)=C(CN2CCN(c3ccc(C(=O)NS(=O)(=O)c4ccc(N[C@H](CCN5CCOCC5)CSc5ccccc5)c(S(=O)(=O)C(F)(F)F)c4)cc3)CC2)C1 [ABT-263, reference compound] | only slightly affected | 100 to 1000 | toxic killing effects on normal non-senescent HEF cells |  |  |  |  |
| Cc1ncsc1-c1ccc([C@H](C)NC(=O)[C@@H]2C[C@@H](O)CN2C(=O)[C@@H](NC(=O)CN2CCN(CC#Cc3ccc(OCCCc4ccc(N5CCc6cccc(C(=O)Nc7nc8ccccc8s7)c6C5)nc4C(=O)O)c(F)c3)CC2)C(C)(C)C)cc1 [APH1] |  | 10 to 100 |  | had the ability to degrade the Bcl-xL protein |  |  |  |
| Cc1cc([C@H](C(=O)N2C[C@H](O)C[C@H]2C(=O)N[C@@H](CC(=O)N2CCC(CN3CCN(CC#Cc4ccc(OCCCc5ccc(N6CCc7cccc(C(=O)Nc8nc9ccccc9s8)c7C6)nc5C(=O)O)c(F)c4)CC3)CC2)c2ccc(-c3scnc3C)cc2)C(C)C)on1 [APH7] |  | 10 to 100 |  | had the ability to degrade the Bcl-xL protein |  |  |  |
| Cc1cc([C@H](C(=O)N2C[C@H](O)C[C@H]2C(=O)N[C@@H](CC(=O)N2CCC(CCN3CCN(CC#Cc4ccc(OCCCc5ccc(N6CCc7cccc(C(=O)Nc8nc9ccccc9s8)c7C6)nc5C(=O)O)c(F)c4)CC3)CC2)c2ccc(Cl)cc2)C(C)C)on1 [APH105] |  | < 10 |  | had the ability to degrade the Bcl-xL protein | < 10 |  |  |
| CC(C)(C)[C@H](NC(=O)C1(F)CC1)C(=O)N1C[C@H](O)C[C@H]1C(=O)N[C@@H](CC(=O)N1CCC(CCN2CCN(CC#Cc3ccc(OCCCc4ccc(N5CCc6cccc(C(=O)Nc7nc8ccccc8s7)c6C5)nc4C(=O)O)c(F)c3)CC2)CC1)c1ccc(Cl)cc1 [APH106] |  | 10 to 100 |  | had the ability to degrade the Bcl-xL protein |  |  |  |
| CS(=O)(=O)NC(=O)c1nc(N2CCc3cccc(C(=O)Nc4nc5ccccc5s4)c3C2)ccc1CCCOc1ccc(C#CCN2CCN(CC3CCN(c4ccc(N5CCC(=O)NC5=O)cc4)CC3)CC2)cc1F [APQ10-2] | significantly reduced cell killing activity | < 10 |  | had the ability to degrade the Bcl-xL protein | < 10 | comparable to A-1331852 |  |
| O=C1CCN(c2cc(F)c(N3CCN(CC#Cc4ccc(OCCCc5ccc(N6CCc7cccc(C(=O)Nc8nc9ccccc9s8)c7C6)nc5C(=O)O)c(F)c4)CC3)cc2F)C(=O)N1 [APQ904] | significantly reduced cell killing activity | < 10 |  | had the ability to degrade the Bcl-xL protein | < 10 | comparable to A-1331852 |  |
| O=C1CCC(N2C(=O)c3cccc(NCCOCCOCCOCCOCCN4CCN(CC#Cc5ccc(OCCCc6ccc(N7CCc8cccc(C(=O)Nc9nc%10ccccc%10s9)c8C7)nc6C(=O)O)c(F)c5)CC4)c3C2=O)C(=O)N1 (stereo not drawn) [BF4] | significantly reduced cell killing activity | 10 to 100 | no toxicity on normal non-senescent HEF cells | had the ability to degrade the Bcl-xL protein |  |  | efficiently and selectively kill senescent HEF cells |

— patent EP4759810A1, “PROTAC TARGETING BCL-XL PROTEIN AND USE THEREOF” (BEIJING SUNCELL BIO-MEDICAL CO., LTD., priority 2023, dated 2025)
